# Measured values reported in patent EP4818330A1, “PHARMACEUTICAL PREPARATION FOR DIAGNOSING AND TREATING ALZHEIMER'S DISEASE” (Shanghai East Hospital Tongji University, priority 2023, dated 2025).
# Several values for one entry are separate records, joined by “and”; a condition that tells them apart may be missing. Equal entries are not always repeated.
# Key:
# primary neurons = test: CCK8 cell viability (toxicity) assay in primary neurons; format: cell-based, mouse; settings: 24 h, CCK8, three replicate wells
# Text: (§1) The CCK8 cell viability assay (CCK8) was adopted. Its principle is mainly based on the reduction reaction of WST-8 (chemical name: 2-(2-methoxy-4-nitrophenyl)-3-(4-nitrophenyl)-5-(2,4-disulfophenyl)-2H-tetrazolium monosodium salt). In the presence of living cells, WST-8 can be reduced by dehydrogenases in mitochondria to generate a highly water-soluble orange-yellow formazan product. The color intensity is directly proportional to the number of living cells, wherein the quantity of living cells can be indirectly reflected by measuring the absorbance of formazan products (typically at a wavelength of 450 nm). The CCK-8 assay is widely used in cell proliferation assay, cytotoxicity assay and tumor drug sensitivity test.
# (§2) Primary hippocampal neuron culture: After ICR fetal mice at 18-21 days of gestation (E18-E21) were anesthetized, the fetal mice were dissected in a clean area and immersed in 75% ethanol for 1-2 min. The mouse head was taken out, the surface skull was removed with micro-scissors, and the brain tissue was transferred to an anatomical dissociation solution. Under a microscope, blood vessels and meninges were removed, hippocampal tissue was isolated, the extracted hippocampal tissue was placed in a 3.5 cm dish containing the anatomical dissociation solution, and the hippocampal tissue was cut into small fragments using micro-scissors. The minced hippocampal tissue was transferred to a 7 ml EP tube using a pipette gun. The hippocampal tissue hereinabove was centrifuged at 1000 rpm for 3-5 min, and the anatomical separation solution was discarded. 0.5-1 ml of papain digestion solution was added to the EP tube hereinabove, and the EP tube was placed in a 37°C incubator for 30 min. 300 µL of Trituration buffer 300 (DNase) and 5 mL of complete medium were added, and the hippocampal tissue was gently pipetted more than 10 times. The cell suspension was allowed to stand for 3 min, and 3-4 ml of supernatant was gently aspirated into a 15 ml tube using a pipette. 3-4 ml of complete medium was added again, and the hippocampal tissue was gently pipetted more than 10 times. Step 8 was repeated, and 3-4 ml of supernatant was transferred to the same 15 ml tube again. The previous step was repeated again. The collected supernatant was centrifuged at 1000 rpm, the supernatant was discarded, and 5 ml of complete medium was added. The mixture was gently pipetted and suspended, and then centrifuged again at 1000 rpm for 5 min. The complete medium was added to resuspend the cells, and then a portion of the cells was aspirated for counting. Generally, when neuronal cells were planted in a 24-well plate, the concentration of the cell suspension was generally 2×10^5/ml, and 500 µl of cells is inoculated per well. The resuspended neuron cells with a diluted ratio were seeded onto a glass slide treated with PDL, then the glass slide was placed in a 37°C incubator for 10 min, an appropriate amount of complete medium was added, and then the culture is continued in the incubator.
# [1] = as above; format: cell-based, mouse; settings: ICR, mouse, primary hippocampal neurons, 24 h, CCK8, three replicate wells
# Text: as §1, §2
# APP/PS1 transgenic mice = test: Dendritic spine density of hippocampal neurons in brain slices of AD mice; format: in vivo
# Procedure: Thy1-GFP mice are commonly used in neuroscience research. The fluorescence labeling of GFP facilitates convenient observation and tracking of specific cell types, especially neurons. APP/PS1 transgenic mice (an animal model of Alzheimer's disease) were crossed with Thy1-GFP mice. The crossed mice aged 5 months were intraperitoneally injected with a compound solution at a concentration of 2.5 mg/kg for 1 month continuously. Subsequently, the crossed mice aged 6 months were subjected to behavioral test (Morris water maze MWM experiment) to evaluate learning and memory abilities (as shown in FIG. 22).
# After the water maze behavioral test, the mice were anesthetized and perfused, and then brain tissue sections were taken. The density of neuronal dendritic spines was observed under a confocal fluorescence microscope using GFP green fluorescence.
# 293T cell line = test: CCK8 cell viability (toxicity) assay in 293T cell line; format: cell-based; settings: 293T, 24 h, CCK8, three replicate wells
# Text: as §1
# (§3) In in vitro experiments, the compound stock solution was prepared into 10 mM with DMSO and diluted with a culture medium before use. The 293T cell line was used for preliminary concentration screening of the compound, wherein concentration gradients were set as follows: 5 µmol, 10 µmol, 20 µmol, 40 µmol, 80 µmol and 160 µmol. After the cells were treated with the compound for 24 h, the CCK8 detection kit was used, wherein the cell viability was calculated based on the absorbance values detected by a microplate reader. Data processing was performed using GraphPad Prism software to plot the IC50 curve.
# [2] = as above; format: cell-based; settings: human, 293T cells, 293T, 24 h, CCK8, three replicate wells
# Text: as §1, §3
structure (smiles),measurement,setting,value
"CCOC(=O)c1[nH]c(C)c(CCC(=O)N2CCCC(C(=O)NCCN3CCCCCC3)C2)c1C (stereo not drawn) [compound of Formula I, ETHYL4-[3-(3-{[2-(AZEPAN-1-YL)ETHYL]CARBAMOYL}PIPERIDIN-1-YL)-3-OXOPROPYL]-3, 5-DIMETHYL-1H-PYRROLE-2-CARBOXYLATE]",cell viability,primary neurons; 1.25 µmol,88.68% and 77.1%
same,cell viability,primary neurons; 5 µmol,77.35% and 75.31%
same,cell viability,primary neurons; 10 µmol,58.82% and 65.03%
same,cell viability,primary neurons; 20 µmol,40.38% and 35.57%
same,cell viability,primary neurons; 40 µmol,23.14% and 48.19% and 36.68%
same,cell viability,primary neurons; 160 µmol,3.329% and 5.244%
same,"viability at 24 h, 1.25 µmol",[1]; 1.25 µmol,94.5%
same,"viability at 24 h, 5 µmol",[1]; 5 µmol,70.7%
same,"viability at 24 h, 10 µmol",[1]; 10 µmol,51.8%
same,"viability at 24 h, 20 µmol",[1]; 20 µmol,37.1%
same,"viability at 24 h, 80 µmol",[1]; 80 µmol,4.02%
same,"viability at 24 h, 160 µmol",[1]; 160 µmol,4.65%
same,"viability at 24 h, 2.5 µmol",[1],90.6%
same,dendritic spine density of hippocampal neurons (normalized to the control group),"APP/PS1 transgenic mice; APP SW + intervention, IP 2.5 mg/kg for 1 month, brain slices, individual neurons, 2.5 mg/kg",0.7721 and 0.7284 and 0.6276 and 0.7954 and 0.8425 and 0.7853
same,dendritic spine density of hippocampal neurons,APP/PS1 transgenic mice; after compound intervention vs AD mice,increased
same,cell viability,293T cell line; 5 µmol,106.6% and 109.2%
same,cell viability,293T cell line; 10 µmol,109.8% and 96.54%
same,cell viability,293T cell line; 20 µmol,95.56% and 93.46%
same,cell viability,293T cell line; 40 µmol,86.71% and 78.81%
same,cell viability,293T cell line; 80 µmol,24% and 23.36%
same,cell viability,293T cell line; 160 µmol,32.01% and 28.26%
same,"viability at 24 h, 5 µmol",[2]; 5 µmol,96.6%
same,"viability at 24 h, 10 µmol",[2]; 10 µmol,109%
same,"viability at 24 h, 20 µmol",[2]; 20 µmol,93.1%
same,"viability at 24 h, 40 µmol",[2]; 40 µmol,86.7%
same,"viability at 24 h, 80 µmol",[2]; 80 µmol,22.7%
same,"viability at 24 h, 160 µmol",[2]; 160 µmol,27.2%
